Source: ChEMBL document CHEMBL4665907, “Breakthrough in Degradation of BCR-ABL Fusion Protein for the Treatment of Cancer” (ACS Med Chem Lett, 2020)

What was measured:
[1] = molecular target: T1, Protein cereblon/Tyrosine-protein kinase ABL1/Breakpoint cluster region protein (Homo sapiens, UniProt P00519+P11274+Q96SW2); assay: Protac activity at CRBN/BCR-ABL in human K562 cells assessed as induction of BCR-ABL degradation at 1 uM incubated for 24 hrs by western blot analysis relative to control; type: cell-based
Target sequence in this assay (P00519 whole entry, looked up): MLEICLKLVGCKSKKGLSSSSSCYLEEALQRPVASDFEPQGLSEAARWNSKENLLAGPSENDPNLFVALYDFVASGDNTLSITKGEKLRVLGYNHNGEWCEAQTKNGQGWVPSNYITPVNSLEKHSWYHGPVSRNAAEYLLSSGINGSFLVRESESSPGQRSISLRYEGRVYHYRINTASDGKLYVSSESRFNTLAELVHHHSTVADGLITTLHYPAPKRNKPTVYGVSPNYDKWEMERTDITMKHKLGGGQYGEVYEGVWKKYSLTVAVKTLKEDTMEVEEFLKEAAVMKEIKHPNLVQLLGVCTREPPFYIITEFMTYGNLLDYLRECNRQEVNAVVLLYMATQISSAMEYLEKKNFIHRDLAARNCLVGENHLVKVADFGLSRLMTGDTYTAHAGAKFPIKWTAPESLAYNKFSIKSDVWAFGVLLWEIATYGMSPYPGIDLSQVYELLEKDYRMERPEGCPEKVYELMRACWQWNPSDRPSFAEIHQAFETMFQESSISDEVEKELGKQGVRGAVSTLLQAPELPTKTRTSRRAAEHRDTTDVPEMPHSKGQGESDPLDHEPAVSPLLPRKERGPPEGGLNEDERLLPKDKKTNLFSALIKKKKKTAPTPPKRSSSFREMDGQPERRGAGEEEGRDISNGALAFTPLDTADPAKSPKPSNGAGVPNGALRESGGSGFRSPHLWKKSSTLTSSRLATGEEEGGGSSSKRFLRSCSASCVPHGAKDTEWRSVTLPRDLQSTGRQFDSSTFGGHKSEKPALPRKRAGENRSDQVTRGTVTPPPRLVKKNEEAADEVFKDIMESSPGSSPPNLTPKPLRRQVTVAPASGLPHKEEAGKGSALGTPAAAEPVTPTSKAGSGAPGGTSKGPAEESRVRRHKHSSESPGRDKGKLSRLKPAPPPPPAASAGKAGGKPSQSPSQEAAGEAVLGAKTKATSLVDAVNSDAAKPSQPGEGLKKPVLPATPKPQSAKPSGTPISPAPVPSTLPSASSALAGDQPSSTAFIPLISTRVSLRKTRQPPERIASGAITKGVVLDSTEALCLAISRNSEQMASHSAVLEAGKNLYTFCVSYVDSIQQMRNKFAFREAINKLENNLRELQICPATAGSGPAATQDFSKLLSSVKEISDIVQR
Target sequence in this assay (P11274 whole entry, looked up): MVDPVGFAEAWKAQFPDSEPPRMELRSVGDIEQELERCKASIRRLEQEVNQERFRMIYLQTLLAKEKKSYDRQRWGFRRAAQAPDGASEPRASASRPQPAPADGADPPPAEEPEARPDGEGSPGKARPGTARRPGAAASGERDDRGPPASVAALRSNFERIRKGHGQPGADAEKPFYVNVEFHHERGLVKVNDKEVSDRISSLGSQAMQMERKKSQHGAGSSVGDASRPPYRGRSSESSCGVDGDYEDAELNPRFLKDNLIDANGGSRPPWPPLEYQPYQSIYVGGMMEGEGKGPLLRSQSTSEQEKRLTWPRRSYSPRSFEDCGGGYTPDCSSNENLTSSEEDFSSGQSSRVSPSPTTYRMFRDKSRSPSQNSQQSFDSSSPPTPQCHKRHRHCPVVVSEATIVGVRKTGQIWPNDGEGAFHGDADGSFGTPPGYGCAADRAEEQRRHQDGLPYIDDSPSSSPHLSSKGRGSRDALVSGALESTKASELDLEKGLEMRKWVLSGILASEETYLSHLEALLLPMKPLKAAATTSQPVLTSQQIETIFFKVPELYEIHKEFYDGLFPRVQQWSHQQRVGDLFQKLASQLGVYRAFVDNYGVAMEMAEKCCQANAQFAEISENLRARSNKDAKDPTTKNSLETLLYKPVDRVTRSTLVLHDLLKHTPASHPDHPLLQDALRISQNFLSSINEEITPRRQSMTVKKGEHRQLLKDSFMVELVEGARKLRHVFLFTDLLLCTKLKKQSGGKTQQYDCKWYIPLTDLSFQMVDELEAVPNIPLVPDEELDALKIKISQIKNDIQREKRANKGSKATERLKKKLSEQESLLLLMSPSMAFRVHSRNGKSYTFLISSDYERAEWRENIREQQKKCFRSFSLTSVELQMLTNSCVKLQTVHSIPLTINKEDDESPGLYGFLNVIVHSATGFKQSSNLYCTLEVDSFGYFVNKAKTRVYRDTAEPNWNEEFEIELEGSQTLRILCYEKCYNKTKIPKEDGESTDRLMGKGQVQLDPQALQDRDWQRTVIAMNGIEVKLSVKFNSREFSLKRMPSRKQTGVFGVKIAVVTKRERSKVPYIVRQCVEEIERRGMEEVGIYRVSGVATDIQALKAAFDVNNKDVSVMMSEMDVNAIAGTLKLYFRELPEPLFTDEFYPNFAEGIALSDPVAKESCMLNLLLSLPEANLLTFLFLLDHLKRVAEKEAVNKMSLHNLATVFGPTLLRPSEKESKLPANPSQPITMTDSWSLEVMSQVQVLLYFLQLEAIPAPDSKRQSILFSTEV
Target sequence in this assay (Q96SW2 whole entry, looked up): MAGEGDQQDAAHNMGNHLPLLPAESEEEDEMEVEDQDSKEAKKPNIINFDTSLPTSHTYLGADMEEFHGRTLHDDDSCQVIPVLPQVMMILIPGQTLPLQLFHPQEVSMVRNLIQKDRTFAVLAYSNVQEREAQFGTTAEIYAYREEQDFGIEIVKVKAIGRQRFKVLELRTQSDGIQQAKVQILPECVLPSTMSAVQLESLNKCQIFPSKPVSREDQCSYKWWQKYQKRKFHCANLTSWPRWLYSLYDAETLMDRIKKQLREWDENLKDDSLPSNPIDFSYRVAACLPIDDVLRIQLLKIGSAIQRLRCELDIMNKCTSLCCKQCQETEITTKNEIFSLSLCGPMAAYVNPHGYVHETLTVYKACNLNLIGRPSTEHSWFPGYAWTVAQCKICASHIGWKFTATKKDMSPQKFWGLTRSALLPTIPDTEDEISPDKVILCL

[2] = molecular target: T1, Protein cereblon/Tyrosine-protein kinase ABL1/Breakpoint cluster region protein; assay: Protac activity at CRBN/BCR-ABL in human K562 cells assessed as induction of BCR-ABL degradation at 2.5 uM incubated for 24 hrs by western blot analysis relative to control; type: cell-based
Target sequence in this assay (P00519 whole entry, looked up): as the sequence (P00519 whole entry, looked up) above
Target sequence in this assay (P11274 whole entry, looked up): as the sequence (P11274 whole entry, looked up) above
Target sequence in this assay (Q96SW2 whole entry, looked up): as the sequence (Q96SW2 whole entry, looked up) above

[3] = molecular target: T1, Protein cereblon/Tyrosine-protein kinase ABL1/Breakpoint cluster region protein; assay: Protac binding affinity at CRBN/BCR-ABL (unknown origin) assessed as binding to non phosphorylated c-ABL kinase domain by Kinomescan assay; type: protein assay
Target sequence in this assay (P00519 whole entry): as the sequence (P00519 whole entry, looked up) above
Target sequence in this assay (P11274 whole entry): as the sequence (P11274 whole entry, looked up) above
Target sequence in this assay (Q96SW2 whole entry): as the sequence (Q96SW2 whole entry, looked up) above

[4] = molecular target: T1, Protein cereblon/Tyrosine-protein kinase ABL1/Breakpoint cluster region protein; assay: Protac binding affinity at CRBN/BCR-ABL (unknown origin) assessed as binding to phosphorylated c-ABL kinase domain by Kinomescan assay; type: protein assay
Target sequence in this assay (P00519 whole entry): as the sequence (P00519 whole entry, looked up) above
Target sequence in this assay (P11274 whole entry): as the sequence (P11274 whole entry, looked up) above
Target sequence in this assay (Q96SW2 whole entry): as the sequence (Q96SW2 whole entry, looked up) above

[5] = molecular target: T2, von Hippel-Lindau disease tumor suppressor/Tyrosine-protein kinase ABL1/Breakpoint cluster region protein (Homo sapiens, UniProt P00519+P11274+P40337); assay: Protac binding affinity at VHL/BCR-ABL (unknown origin) assessed as binding to phosphorylated c-ABL kinase domain by Kinomescan assay; type: protein assay
[6] = molecular target: T2, von Hippel-Lindau disease tumor suppressor/Tyrosine-protein kinase ABL1/Breakpoint cluster region protein; assay: Protac binding affinity at VHL/BCR-ABL (unknown origin) assessed as binding to non phosphorylated c-ABL kinase domain by Kinomescan assay; type: protein assay

T2 sequence (P00519 whole entry, the tested form may be a part): as the sequence (P00519 whole entry, looked up) above
T2 sequence (P11274 whole entry, the tested form may be a part): as the sequence (P11274 whole entry, looked up) above
T2 sequence (P40337 whole entry, the tested form may be a part): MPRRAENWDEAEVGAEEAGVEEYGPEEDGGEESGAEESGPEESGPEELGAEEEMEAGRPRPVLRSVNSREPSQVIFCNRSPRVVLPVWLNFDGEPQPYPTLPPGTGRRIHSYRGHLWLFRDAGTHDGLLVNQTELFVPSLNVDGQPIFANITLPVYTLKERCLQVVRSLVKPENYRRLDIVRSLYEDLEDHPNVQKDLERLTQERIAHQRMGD

Q: Which Activity [1] does the source give for `Cc1nc(Nc2ncc(C(=O)Nc3c(C)cccc3Cl)s2)cc(N2CCN(CCCCCCOCCOCCOCCCCCC(=O)Nc3cccc4c3C(=O)N(C3CCC(=O)NC3=O)C4=O)CC2)n1` (stereo not drawn) here?
A: > 60%

Q: And the Activity [2]?
A: > 80%

Q: For `Cc1nc(Nc2ncc(C(=O)Nc3c(C)cccc3Cl)s2)cc(N2CCN(CCCCCCOCCOCCOCCOCCOCCOCC(=O)Nc3cccc4c3C(=O)N(C3CCC(=O)NC3=O)C4=O)CC2)n1` (stereo not drawn), which Kd [3] is on record?
A: 260 pM

Q: What about the Activity [1] of the same compound?
A: > 60%

Q: What about the Activity [2] of the same compound?
A: > 80%

Q: And the Kd [4]?
A: 230 pM

Q: Which Kd [5] does the source give for `Cc1nc(Nc2ncc(C(=O)Nc3c(C)cccc3Cl)s2)cc(N2CCN(CCCCCCOCCOCCOCCCCCC(=O)N[C@H](C(=O)N3C[C@H](O)C[C@H]3C(=O)NCc3ccc(-c4scnc4C)cc3)C(C)(C)C)CC2)n1` here?
A: 470 pM

Q: What about the Kd [6] of the same compound?
A: 920 pM

Q: With `COc1cc(Nc2c(C#N)cnc3cc(OCCCN4CCN(CCCCCCOCCOCC(=O)N[C@H](C(=O)N5C[C@H](O)C[C@H]5C(=O)NCc5ccc(-c6scnc6C)cc5)C(C)(C)C)CC4)c(OC)cc23)c(Cl)cc1Cl` as the compound, how does the Kd [5] read?
A: 670 pM

Q: And the Kd [6]?
A: 1300 pM

Q: With `COc1cc(Nc2c(C#N)cnc3cc(OCCCN4CCN(CCCCCCOCCOCC(=O)Nc5cccc6c5C(=O)N(C5CCC(=O)NC5=O)C6=O)CC4)c(OC)cc23)c(Cl)cc1Cl` (stereo not drawn) as the compound, how does the Kd [3] read?
A: 280 pM

Q: What about the Activity [1] of the same compound?
A: > 60%

Q: And the Activity [2]?
A: > 80%

Q: And the Kd [4]?
A: 110 pM

Q: For `Cc1nc(Nc2ncc(C(=O)Nc3c(C)cccc3Cl)s2)cc(N2CCN(CCCCCCOCCOCCOCCOCCOCCOCC(=O)N[C@H](C(=O)N3C[C@H](O)C[C@H]3C(=O)NCc3ccc(-c4scnc4C)cc3)C(C)(C)C)CC2)n1`, which Kd [5] is on record?
A: 88 pM

Q: What about the Kd [6] of the same compound?
A: 280 pM

Q: `COc1cc(Nc2c(C#N)cnc3cc(OCCCN4CCN(CCCCCCOCCOCCOCCOCCOCCOCC(=O)Nc5cccc6c5C(=O)N(C5CCC(=O)NC5=O)C6=O)CC4)c(OC)cc23)c(Cl)cc1Cl` (stereo not drawn) was tested. Which Kd [3] did it give?
A: 380 pM

Q: And the Activity [1]?
A: > 60%

Q: And the Activity [2]?
A: > 80%

Q: What about the Kd [4] of the same compound?
A: 130 pM

Q: What does the source list for `Cc1nc(Nc2ncc(C(=O)Nc3c(C)cccc3Cl)s2)cc(N2CCN(CCCCCCOCCOCC(=O)N[C@H](C(=O)N3C[C@H](O)C[C@H]3C(=O)NCc3ccc(-c4scnc4C)cc3)C(C)(C)C)CC2)n1`?
A: Kd [5]: 210 pM; Kd [6]: 360 pM

Q: What does the source list for `COc1cc(Nc2c(C#N)cnc3cc(OCCCN4CCN(CCCCCCOCCOCCOCCOCCOCCOCC(=O)N[C@H](C(=O)N5C[C@H](O)C[C@H]5C(=O)NCc5ccc(-c6scnc6C)cc5)C(C)(C)C)CC4)c(OC)cc23)c(Cl)cc1Cl`?
A: Kd [5]: 300 pM; Kd [6]: 570 pM

Q: What does the source list for `COc1cc(Nc2c(C#N)cnc3cc(OCCCN4CCN(CCCCCCOCCOCCOCCCCCC(=O)Nc5cccc6c5C(=O)N(C5CCC(=O)NC5=O)C6=O)CC4)c(OC)cc23)c(Cl)cc1Cl` (stereo not drawn)?
A: Kd [3]: 910 pM; Activity [1]: > 60%; Activity [2]: > 80%; Kd [4]: 550 pM
